System: NCI-H295R
Test: IC50 (antiproliferative, ATP content)
Details: 48 h
How it was run: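 Compounds were pin-transferred at 8 final concentrations between 0.6 nM and 46 µM onto adrenocortical carcinoma cells (1500 per well, 1536-well plates) that had been cultured overnight in serum-free DMEM with ITS. Plates then stood 48 h at 37 °C, 5% CO2, and ATP was detected by CellTiter-Glo luminescence. IC50 was derived from logistic fits of normalised signal, and compounds giving no concentration response were noted as above the top dose.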

IC50 | SMILES
> 46 µM | O=c1[nH]c(=O)n([C@H]2C[C@H](O)[C@@H](CO)O2)cc1Br
> 46 µM | C[C@@H](O)[C@H]1C(=O)N2C(C(=O)[O-])=C(SC3Cn4cnc[n+]4C3)[C@H](C)[C@H]12 (some centres not stated)
> 46 µM | Oc1ccc(OCc2ccccc2)cc1
> 46 µM | Cc1ncc(COP(=O)(O)O)c(C=O)c1O.O
> 46 µM | O=C(O)C(Cc1cc(I)c(O)c(I)c1)c1ccccc1 (configuration not stated)
> 46 µM | C=CCc1ccccc1OCC(O)CNC(C)C (configuration not stated)
> 46 µM | O=C([O-])c1cc(O)c2c3nc4ccccc4oc-3cc(=O)c2n1.[Na+]
> 46 µM | CCOC(=O)[C@H](CCc1ccccc1)N[C@@H](C)C(=O)N1[C@H](C(=O)O)C[C@@H]2CCC[C@@H]21
> 46 µM | C/C(=C(\CCOC(=O)C(C)C)SS/C(CCOC(=O)C(C)C)=C(/C)N(C=O)Cc1cnc(C)nc1N)N(C=O)Cc1cnc(C)nc1N
> 46 µM | O=C(C=Cc1ccccc1)OCc1ccccc1
> 46 µM | C=C1[C@H](CO)[C@@H](O)C[C@@H]1n1cnc2c(=O)[nH]c(N)nc21

The next lines start with the compound.

SMILES | IC50
CC[n+]1c(-c2ccccc2)c2cc(N)ccc2c2ccc(N)cc21.[Br-] | > 46 µM
OC(CN1CCC(Cc2ccc(F)cc2)CC1)c1ccc(Cl)cc1 (configuration not stated) | > 46 µM
O=c1ccc2cc(O[C@@H]3O[C@H](CO)[C@@H](O)[C@H](O)[C@H]3O)c(O)cc2o1 | > 46 µM
O=C(C1=C2CCCC1)N(COC([C@H]3C([C@@H]3/C=C(C)\C)(C)C)=O)C2=O | > 46 µM
CCOC(=O)NC(O)C(Cl)(Cl)Cl (configuration not stated) | > 46 µM
C=C[C@H]1CN2CC[C@H]1C[C@H]2[C@H](O)c1ccnc2ccc(OC)cc12 | > 46 µM
O=C(O)CCCCC(=O)O | > 46 µM
N=C(Nc1ccccc1)Nc1ccccc1 | > 46 µM
O=C(O[C@H]1C[C@H]2CC3C[C@@H](C1)N2CC3=O)c1c[nH]c2ccccc12 | > 46 µM
CC[N+](CC)(CC)CCOc1cccc(OCC[N+](CC)(CC)CC)c1OCC[N+](CC)(CC)CC.[I-].[I-].[I-] | > 46 µM
CC1=C(O[C@H](CCNC)[C@@]2=CC=CC=C2)C=CC=C1.Cl | > 46 µM
CC(=O)c1ccc(S(=O)(=O)NC(=O)NC2CCCCC2)cc1 | > 46 µM
O=C(O)C[CH2][Ge](=[O])[O][Ge](=[O])[CH2]CC(=O)O | > 46 µM
CNC(=O)C(N)CSC(C)C1=C(C)c2cc3[n-]c(cc4nc(cc5[n-]c(cc1n2)c(C)c5CCC(=O)O)C(CCC(=O)O)=C4C)c(C)c3C(C)SCC(N)C(=O)NC.[Fe+2] (configuration not stated) | > 46 µM
CN1CCN(CC(=O)N2c3ccccc3C(=O)Nc3cccnc32)CC1 | > 46 µM
ClCc1ccccc1.O=C1C[C@@H]2OCC=C3CN4CC[C@]56c7ccccc7N1[C@H]5[C@H]2[C@H]3C[C@H]46 | > 46 µM
CCCCC(CC)COC(=O)c1ccc(N(C)C)cc1 (configuration not stated) | > 46 µM
CC12CCC(C1)C(C)(C)C2=O (configuration not stated) | > 46 µM
C=C[C@]1(C)C[C@@H](OC(=O)CSCCN(CC)CC)[C@]2(C)[C@@H]3C(=O)CC[C@@]3(CC[C@@H]2C)[C@@H](C)[C@@H]1O | > 46 µM
O=[C@@](OC)[C@H](C2=CC=CC=C2Cl)N1CC(C=CS3)=C3CC1.O=S(O)(O)=O | > 46 µM
COc1cc(OC)cc(OC)c1 | > 46 µM
Cc1ccc(C(=O)Nc2ccc(S(=O)(=O)O)c3cc(S(=O)(=O)O)cc(S(=O)(=O)O)c23)cc1NC(=O)c1cccc(NC(=O)Nc2cccc(C(=O)Nc3cc(C(=O)Nc4ccc(S(=O)(=O)O)c5cc(S(=O)(=O)O)cc(S(=O)(=O)O)c45)ccc3C)c2)c1 | > 46 µM
CN/C(=C\[N+](=O)[O-])NCCSCc1ccc(CN(C)C)o1 | > 46 µM
[O]=[Bi][O]C(=O)[O][Bi]=[O] | > 46 µM
F[C@]1([C@](C)2C=C3)[C@@H](O)C[C@@]([C@]([C@@](CO)=O)(O)[C@H]4C)(C)[C@](C4)([H])[C@@]([H])1CCC2=CC3=O | > 46 µM
CN1CCC[C@@H]1CCO[C@](C)(c1ccccc1)c1ccc(Cl)cc1.O=C(O)/C=C/C(=O)O | > 46 µM

Source: the supplement of paper PMC3493320
